Common to all, as to experiment: MTT assay (anti-proliferative activity)
Common to all, as to format: cell-based

For experiment [1], the system named is MDA-MB-468. To be noted: read-out: IC 50 MDA-MB-468. The protocol:
(§1) The MTT assay was used initially to determine the anti-proliferative activity of the test compounds. In the MTT assay a yellow thiazolyl blue tetrazolium bromide salt (MTT) is reduced, in metabolically active cells, to form insoluble purple formazan crystals which are solubilised by the addition of dimethyl sulphoxide (DMSO).
(§2) Wells containing medium only were used as blanks. Following the attachment period, cells were treated with appropriate drug concentrations (20 μl added per well). 40 mg/ml stock drug solutions, in DMSO, were stored at −20° C. and on the day of drug treatment working solutions of 4 mg/ml were prepared in medium which was further diluted to achieve final drug dilution volumes of 20 μl. Initial screening was determined over a concentration range of 1-200 μg/ml. […] Cells were exposed to drug for 96 h continual exposure (37° C., 5% CO2). Following the 96 h incubation, 50 μl MTT solution (1 g MTT/500 ml PBS) was added per well and the plates were further incubated for 4 h (37° C., 5% CO2). After incubation the MTT and medium was removed from the wells and 100 μl DMSO added per well. Plates were agitated on an orbital mixer platform (Stuart Scientific) for 10 minutes. Absorbance was measured at 570 nm on a Biotrak II (Amersham Bioscience) plate reader. IC50 values were calculated comparing control and drug treated cells.

In experiment [2] the test system is MalMe3M. To be noted: 96 h continual exposure, read-out: IC 50 MalMe3M. The protocol: as §1, §2
For experiment [3], the system named is SkMel28. To be noted: read-out: IC 50 SkMel28. The protocol: as §1, §2
Experiment [4] deals with MCF-7. To be noted: read-out: IC 50 MCF-7. The protocol:
as §1, §2

[5] abbreviates: Homo sapiens, MDA-MB-468, 96 h continual exposure.
The mark [6] stands for this setting: Homo sapiens, MCF7, 96 h continual exposure.
Setting [7] is: Homo sapiens, SK-MEL-28, 96 h continual exposure.

Read-outs that look alike come from different tables or passages of the source.

In the case of `CC(C)CC(NC(=O)c1ccc2c(c1O)C(=O)OC(C)C2)C(=O)O` (mixture of isomers) [ALM-56, Leucine Amide], the IC50 in experiment [1] (96 h continual exposure) is 113 µM; in experiment [2], 486 µM; in experiment [3] (96 h continual exposure), over 596 µM.
For the compound `CC1Cc2ccc(C(=O)NC(C(=O)O)c3ccccc3)c(O)c2C(=O)O1` (mixture of isomers) [ALM-64], the IC50 in experiment [1] (96 h continual exposure) is 118 µM; in experiment [4] (96 h continual exposure) it was 197 µM; in experiment [2], over 562 µM; in experiment [3] (96 h continual exposure) it was over 562 µM.
Take `CC1Cc2ccc(C(=O)NC(CCCCN)C(=O)O)c(O)c2C(=O)O1` (mixture of isomers) [ALM-67]: the IC50 in experiment [1] (96 h continual exposure), in experiment [4] (96 h continual exposure), in experiment [2] and in experiment [3] (96 h continual exposure) was over 570 µM in each case.
On to `CC1Cc2ccc(C(=O)NCCC(=O)O)c(O)c2C(=O)O1` (racemic), for which the IC50 in experiment [1] (96 h continual exposure) is 222 µM; in experiment [4] (96 h continual exposure) it was 136 µM; in experiment [2], 290 µM; in experiment [3] (96 h continual exposure), over 681 µM.
For `COc1cc2c(c(O)c1OC)C(=O)OC(C)C2` (racemic) [ALM-1, Racemic (±)—Kigelin], the IC50 in experiment [1] (setting [5]) is 306 µM; in experiment [4] (setting [6]), 630 µM; in experiment [2] (Homo sapiens, Malme-3M) it was 714 µM; in experiment [3] (setting [7]) it was 718 µM.
As for `CCCCC/C=C\C/C=C\CCCCCCCC(=O)Oc1c(OC)c(OC)cc2c1C(=O)OC(C)C2` (racemic) [ALM-3, Racemic Kigelin Linoleyl Ester], the IC50 in experiment [1] (96 h continual exposure) was 99.9 µM; in experiment [4] (96 h continual exposure), 150 µM; in experiment [2], over 399 µM; in experiment [3] (96 h continual exposure), over 399 µM.
Consider `CC/C=C\C/C=C\C/C=C\CCCCCCCC(=O)Oc1c(OC)c(OC)cc2c1C(=O)OC(C)C2` (racemic) [ALM-4, Racemic Kigelin α-Linolenyl Ester], for which the IC50 in experiment [1] (96 h continual exposure) is 90.2 µM; in experiment [4] (96 h continual exposure), 60.2 µM; in experiment [2] it was 321 µM; in experiment [3] (96 h continual exposure), over 401 µM.
For `CCCCC/C=C\C/C=C\C/C=C\CCCCC(=O)Oc1c(OC)c(OC)cc2c1C(=O)OC(C)C2` (racemic) [ALM-5, Racemic Kigelin γ-Linolenyl Ester] the same measures were 50.1 µM, 20 µM, 150 µM and over 401 µM.
On to `COc1cc2c(c(OC)c1)C(=O)OC(C)C2` (racemic) [ALM-7, 6,8-Dimethoxy-3-methyl-isochroman-1-one], for which the IC50 in experiment [1] (setting [5]) was 486 µM; in experiment [4] (setting [6]), 432 µM; in experiment [2] (Homo sapiens, Malme-3M), 626 µM; in experiment [3] (setting [7]), over 900 µM.
Consider `COc1cc(O)c2c(c1)CC(C)OC2=O` (racemic) [ALM-8, 8-Hydroxy-6-methoxy-3-methylisochroman-1-one], for which the IC50 stood at 428 µM in experiment [1] (setting [5]); 428 µM in experiment [4] (setting [6]); 663 µM in experiment [2] (Homo sapiens, Malme-3M); 725 µM in experiment [3] (setting [7]).
For `COc1cccc2c1C(=O)OC(C)C2` (racemic) [ALM-12, Racemic Mellein Methyl Ether], the IC50 in experiment [1] (setting [5]) is 583 µM; in experiment [4] (setting [6]), over 1040 µM; in experiment [2] (Homo sapiens, Malme-3M) it was over 1040 µM; in experiment [3] (setting [7]) it was over 1040 µM.
For `CC(=O)Oc1cccc2c1C(=O)OC(C)C2` (racemic) [ALM-15, Acetyl rac-Mellein], the IC50 in experiment [1] (96 h continual exposure) is 345 µM; in experiment [4] (96 h continual exposure), 613 µM; in experiment [2], 613 µM; in experiment [3] (96 h continual exposure) it was 622 µM.
`CCOC(=O)Oc1cccc2c1C(=O)OC(C)C2` (racemic) [ALM-16, Racemic Mellein Ethyl Carbonate]: the IC50 in experiment [1] (96 h continual exposure) came to 240 µM; in experiment [4] (96 h continual exposure), 296 µM; in experiment [2] it was 456 µM; in experiment [3] (96 h continual exposure), 360 µM.
For `CCCCC/C=C\C/C=C\CCCCCCCC(=O)Oc1cccc2c1C(=O)OC(C)C2` (racemic) [ALM-18, Racemic Mellein Linoleyl Ester] the same measures were over 453 µM, over 453 µM, over 453 µM and over 453 µM.
For `CC/C=C\C/C=C\C/C=C\CCCCCCCC(=O)Oc1cccc2c1C(=O)OC(C)C2` (racemic) [ALM-19, Racemic Mellein α-Linolenyl Ester] the same measures were over 455 µM, over 455 µM, over 455 µM and over 455 µM.
For `CCCCC/C=C\C/C=C\C/C=C\CCCCC(=O)Oc1cccc2c1C(=O)OC(C)C2` (racemic) [ALM-20, Racemic Mellein γ-Linolenyl Ester] the same measures were over 455 µM, 342 µM, over 455 µM and over 455 µM.
Consider `CC1Cc2c(F)ccc(O)c2C(=O)O1` (racemic) [ALM-23, Racemic Para-Fluoromellein], for which the IC50 in experiment [1] (96 h continual exposure) is 469 µM; in experiment [4] (96 h continual exposure), over 1020 µM; in experiment [2], over 1020 µM; in experiment [3] (96 h continual exposure) it was over 1020 µM.
Take `CC1Cc2c(Br)ccc(O)c2C(=O)O1` (racemic) [ALM-24]: the IC50 stood at 171 µM in experiment [1] (setting [5]); 261 µM in experiment [4] (setting [6]); 249 µM in experiment [2] (Homo sapiens, Malme-3M); 296 µM in experiment [3] (setting [7]).
For `CC1Cc2c(I)ccc(O)c2C(=O)O1` (racemic) [ALM-26, Racemic Para-Iodomellein], the IC50 in experiment [1] (setting [5]) came out at 263 µM; in experiment [4] (setting [6]), 329 µM; in experiment [2] (Homo sapiens, Malme-3M), 168 µM.
`CC1Cc2c(I)cc(I)c(O)c2C(=O)O1` (racemic) [ALM-27, Racemic 2,4-di-iodomellein]: the IC50 is 48.8 µM in experiment [1] (setting [5]); 116 µM in experiment [4] (setting [6]); 109 µM in experiment [2] (Homo sapiens, Malme-3M); 76.8 µM in experiment [3] (setting [7]).
For `COc1ccc(I)c2c1C(=O)OC(C)C2` (racemic) [ALM-28] the same measures were 211 µM, 594 µM, 484 µM and 283 µM.
For `CC(=O)c1ccc2c(c1O)C(=O)OC(C)C2` (racemic) [ALM-29, Racemic ortho-acetylmellein] the same measures were 341 µM, 341 µM, 341 µM and 363 µM.
For `CC1Cc2c([N+](=O)[O-])cc([N+](=O)[O-])c(O)c2C(=O)O1` (racemic) [ALM-30, Racemic 2,4-dinitromellein] the same measures were 138 µM, 130 µM, 142 µM and 179 µM.
In the case of `CC1Cc2ccc(C(=O)O)c(O)c2C(=O)O1` (racemic) [ALM-33, 8-Hydroxy-3-methyl-1-oxo-isochroman-7-carboxylic acid], the IC50 is 585 µM in experiment [1] (setting [5]); over 900 µM in experiment [4] (setting [6]); over 900 µM in experiment [2] (Homo sapiens, Malme-3M); over 900 µM in experiment [3] (setting [7]).
For `COC(=O)c1ccc2c(c1O)C(=O)OC(C)C2` (racemic) [ALM-34, 8-Hydroxy-3-methyl-1-oxo-isochroman-7-carboxylic acid methyl ester], the IC50 in experiment [1] (setting [5]) is 360 µM; in experiment [4] (setting [6]) it was over 847 µM; in experiment [2] (Homo sapiens, Malme-3M), over 847 µM; in experiment [3] (setting [7]) it was over 847 µM.
In the case of `CC1Cc2ccc(C(=O)OCc3ccccc3)c(O)c2C(=O)O1` (racemic) [ALM-36, Benzyl Ester], the IC50 in experiment [1] (96 h continual exposure) is 99.3 µM; in experiment [2], 106 µM; in experiment [3] (96 h continual exposure), 176 µM.
Turning to `CC1Cc2ccc(C(=O)Oc3ccccc3)c(O)c2C(=O)O1` (racemic) [ALM-37, Phenyl Ester], the IC50 was 181 µM in experiment [1] (96 h continual exposure), 285 µM in experiment [4] (96 h continual exposure), 308 µM in experiment [2] and 332 µM in experiment [3] (96 h continual exposure).
For `CC1Cc2ccc(C(=O)OC3CCCCC3)c(O)c2C(=O)O1` (racemic) [ALM-38, Cyclohexyl Ester] the same measures were 131 µM, 98.6 µM, 131 µM and 131 µM.
For `CC1Cc2ccc(C(=O)OC(C)(C)C)c(O)c2C(=O)O1` (racemic) [ALM-39, Tert-Butyl Ester] the same measures were 305 µM, 392 µM, 345 µM and 359 µM.
For `CCCCCCOC(=O)c1ccc2c(c1O)C(=O)OC(C)C2` (racemic) [ALM-40, Hexyl Ester] the same measures were 42.4 µM, 65.3 µM, 114 µM and 163 µM.
For `CCCCCCCCCCCCOC(=O)c1ccc2c(c1O)C(=O)OC(C)C2` (racemic) [ALM-41, Dodecyl Ester], the IC50 was determined as 166 µM in experiment [1] (96 h continual exposure), 192 µM in experiment [4] (96 h continual exposure), 333 µM in experiment [2] and 256 µM in experiment [3] (96 h continual exposure).
For `CCCCCCCC/C=C\CCCCCCCCOC(=O)c1ccc2c(c1O)C(=O)OC(C)C2` (racemic) [ALM-42, Oleyl Ester] the same measures were 317 µM, over 423 µM, over 423 µM and over 423 µM.

For the origin of these results see US20090047221A1 (NIPRI LIMITED, priority 2004, published 2009).
